Results taken from PubChem BioAssay (NCI).
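Dose response: 5 concentrations. Exposure: 48 h. Format: 96-well plates. Endpoint: linear interpolation; highest concentration if not reached. At the TGI there is no net growth.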

Columns and labels:
Assay in all cases: NCI tumour cell line growth inhibition, 48 h
[1] = system: 786-0 renal
[2] = system: A498 renal
[3] = system: A549 NSCLC
[4] = system: ACHN renal
[5] = system: CAKI-1 renal
[6] = system: CCRF-CEM leukemia
[7] = system: COLO 205 colon
[8] = system: DU-145 prostate
[9] = system: EKVX NSCLC
[10] = system: HCC-2998 colon
[11] = system: HCT-116 colon
[12] = system: HCT-15 colon
[13] = system: HOP-62 NSCLC
[14] = system: HS 578T breast
[15] = system: HT29 colon
[16] = system: IGROV1 ovarian
[17] = system: K-562 leukemia
[18] = system: KM12 colon
[19] = system: LOX IMVI melanoma
[20] = system: M14 melanoma
[21] = system: MALME-3M melanoma
[22] = system: MCF7 breast
[23] = system: MDA-MB-231 breast
[24] = system: MDA-MB-435
[25] = system: MDA-N
[26] = system: MOLT-4 leukemia
[27] = system: NCI-H226 lung
[28] = system: NCI-H460 lung
[29] = system: NCI-H522 lung
[30] = system: NCI/ADR-RES ovarian
[31] = system: OVCAR-3 ovarian
[32] = system: OVCAR-4 ovarian
[33] = system: OVCAR-5 ovarian
[34] = system: OVCAR-8 ovarian
[35] = system: PC-3 prostate
[36] = system: RXF 393 renal
[37] = system: SF-268 CNS
[38] = system: SF-295 CNS
[39] = system: SF-539 CNS
[40] = system: SK-MEL-2 melanoma
[41] = system: SK-MEL-28 melanoma
[42] = system: SK-MEL-5 melanoma
[43] = system: SK-OV-3 ovarian
[44] = system: SN12C renal
[45] = system: SNB-19 CNS
[46] = system: SNB-75 CNS
[47] = system: SR leukemia
[48] = system: SW-620 colon
[49] = system: T-47D breast
[50] = system: U251 CNS
[51] = system: HL-60(TB) leukemia
[52] = system: NCI-H23 lung
[53] = system: RPMI-8226 leukemia
[54] = system: TK-10 renal
[55] = system: UACC-257 melanoma
[56] = system: UACC-62 melanoma
[57] = system: UO-31 renal

`CSc1cc(Cl)c(C)cc1S(=O)(=O)NC(=O)NNc1ccc(C)cc1` was tested, and the TGI [1] was over 100 µM, the TGI [2] was over 100 µM and the TGI [3] was over 100 µM. It also gave a TGI [4] of over 100 µM, a TGI [5] of over 100 µM and a TGI [6] of over 100 µM. For the same molecule, the TGI [7] was over 100 µM, the TGI [8] was over 100 µM and the TGI [9] was over 100 µM. For the same molecule, the TGI [10] was 66.1 µM, the TGI [11] was over 100 µM and the TGI [12] was over 100 µM. The TGI [13] was over 100 µM, the TGI [14] was over 100 µM and the TGI [15] was over 100 µM. It also gave a TGI [16] of over 100 µM, a TGI [17] of over 100 µM and a TGI [18] of over 100 µM. It also gave a TGI [19] of over 100 µM, a TGI [20] of over 100 µM and a TGI [21] of over 100 µM. For the same molecule, the TGI [22] was over 100 µM, the TGI [23] was over 100 µM and the TGI [24] was over 100 µM. For the same molecule, the TGI [25] was over 100 µM, the TGI [26] was over 100 µM and the TGI [27] was over 100 µM. For the same molecule, the TGI [28] was over 100 µM, the TGI [29] was over 100 µM and the TGI [30] was over 100 µM. The TGI [31] was over 100 µM, the TGI [32] was over 100 µM and the TGI [33] was over 100 µM. For the same molecule, the TGI [34] was over 100 µM, the TGI [35] was over 100 µM and the TGI [36] was over 100 µM. For the same molecule, the TGI [37] was over 100 µM, the TGI [38] was over 100 µM and the TGI [39] was over 100 µM. It also gave a TGI [40] of over 100 µM, a TGI [41] of over 100 µM and a TGI [42] of over 100 µM. For the same molecule, the TGI [43] was over 100 µM, the TGI [44] was over 100 µM and the TGI [45] was over 100 µM. It also gave a TGI [46] of over 100 µM, a TGI [47] of over 100 µM and a TGI [48] of over 100 µM. For the same molecule, the TGI [49] was over 100 µM and the TGI [50] was over 100 µM.

Work on `CCOC(=O)N1c2ccccc2C(C)=CC(C)C1C` (stereo unspecified) yielded a TGI [1] of over 100 µM, a TGI [2] of 96.5 µM and a TGI [3] of over 100 µM. The TGI [4] was over 100 µM, the TGI [5] was 74.3 µM and the TGI [6] was over 100 µM. It also gave a TGI [7] of over 100 µM, a TGI [8] of over 100 µM and a TGI [9] of 99 µM. The TGI [10] was over 100 µM, the TGI [11] was 40.1 µM and the TGI [12] was over 100 µM. For the same molecule, the TGI [51] was 57.2 µM, the TGI [13] was over 100 µM and the TGI [14] was 82.2 µM. For the same molecule, the TGI [15] was 40.3 µM, the TGI [16] was over 100 µM and the TGI [17] was over 100 µM. It also gave a TGI [18] of 83.4 µM, a TGI [19] of 63.7 µM and a TGI [20] of 80 µM. It also gave a TGI [21] of over 100 µM, a TGI [22] of over 100 µM and a TGI [23] of 78.4 µM. It also gave a TGI [24] of 15.8 µM, a TGI [25] of 27.3 µM and a TGI [26] of over 100 µM. The TGI [27] was 80.1 µM, the TGI [52] was 60.1 µM and the TGI [28] was over 100 µM. It also gave a TGI [29] of 89.6 µM, a TGI [30] of over 100 µM and a TGI [31] of 51.1 µM. The TGI [32] was over 100 µM, the TGI [33] was over 100 µM and the TGI [34] was 44.1 µM. For the same molecule, the TGI [35] was over 100 µM, the TGI [53] was over 100 µM and the TGI [36] was 51 µM. For the same molecule, the TGI [37] was over 100 µM, the TGI [38] was 68.3 µM and the TGI [39] was 42.7 µM. For the same molecule, the TGI [40] was over 100 µM, the TGI [41] was over 100 µM and the TGI [42] was 39.6 µM. For the same molecule, the TGI [43] was over 100 µM, the TGI [44] was over 100 µM and the TGI [45] was over 100 µM. It also gave a TGI [46] of 69 µM, a TGI [47] of 55.1 µM and a TGI [48] of over 100 µM. The TGI [49] was over 100 µM, the TGI [54] was 51 µM and the TGI [55] was 88.5 µM. The TGI [56] was over 100 µM and the TGI [57] was over 100 µM.
